Laboratory results published in ChEMBL document CHEMBL1201862, “PubChem BioAssay data set” (2004).
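Following 48 hours of exposure in 96-well plates, responses at five concentrations were used to interpolate endpoints linearly. The concentration for 50% growth inhibition is given as GI50.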 Active and inactive are the calls of the source. No stated cut-off is given here; in the data, active = GI50 up to about 1.1 µM and inactive = higher.

Key:
Assay in all cases: NCI anticancer screen, dose series, 48 h
786-0 = system: 786-0
A498 = system: A498
A549 = system: A549
ACHN = system: ACHN
CAKI-1 = system: CAKI-1
CCRF-CEM = system: CCRF-CEM
COLO 205 = system: COLO 205
DU-145 = system: DU-145
EKVX = system: EKVX
HCC 2998 = system: HCC 2998
HCT-116 = system: HCT-116
HCT-15 = system: HCT-15
HL-60 = system: HL-60
HOP-62 = system: HOP-62
HOP-92 = system: HOP-92
HT-29 = system: HT-29
Hs-578T = system: Hs-578T
IGROV-1 = system: IGROV-1
K562 = system: K562
KM12 = system: KM12
M14 = system: M14
MCF7 = system: MCF7
MDA-N = system: MDA-N
MOLT-4 = system: MOLT-4
Malme-3M = system: Malme-3M
NCI-H23 = system: NCI-H23
NCI-H460 = system: NCI-H460
NCI/ADR-RES = system: NCI/ADR-RES
OVCAR-4 = system: OVCAR-4
OVCAR-5 = system: OVCAR-5
OVCAR-8 = system: OVCAR-8
PC-3 = system: PC-3
RPMI-8226 = system: RPMI-8226
RXF 393 = system: RXF 393
SF-268 = system: SF-268
SF-295 = system: SF-295
SK-MEL-28 = system: SK-MEL-28
SK-MEL-5 = system: SK-MEL-5
SK-OV-3 = system: SK-OV-3
SNB-19 = system: SNB-19
SNB-75 = system: SNB-75
SR = system: SR
SW-620 = system: SW-620
T47D = system: T47D
TK-10 = system: TK-10
U-251 = system: U-251
UACC-257 = system: UACC-257
UO-31 = system: UO-31
LOX IMVI = system: LOX IMVI
MDA-MB-231 = system: MDA-MB-231
SN12C = system: SN12C
UACC-62 = system: UACC-62
MDA-MB-435 = system: MDA-MB-435
NCI-H226 = system: NCI-H226
OVCAR-3 = system: OVCAR-3
SF-539 = system: SF-539
SK-MEL-2 = system: SK-MEL-2

For `O=C(CCl)N1CCN(c2ccccc2)CC1`, the GI50 (786-0) was 15.9 µM (inactive), the GI50 (A498) was 25.9 µM (inactive) and the GI50 (A549) was 22.6 µM (inactive). The GI50 (ACHN) was 24.4 µM (inactive), the GI50 (CAKI-1) was 15.8 µM (inactive) and the GI50 (CCRF-CEM) was 26.7 µM (inactive). The GI50 (COLO 205) was 21.5 µM (inactive), the GI50 (DU-145) was > 100 µM (inactive) and the GI50 (EKVX) was 24.5 µM (inactive). The GI50 (HCC 2998) was 17.6 µM (inactive), the GI50 (HCT-116) was 18.3 µM (inactive) and the GI50 (HCT-15) was 20.1 µM. For the same compound, the GI50 (HL-60) was 20 µM (inactive), the GI50 (HOP-62) was 19.7 µM (inactive) and the GI50 (HOP-92) was 21.4 µM (inactive). The GI50 (HT-29) was 23.6 µM (inactive), the GI50 (Hs-578T) was 32.8 µM (inactive) and the GI50 (IGROV-1) was 24.1 µM (inactive). The GI50 (K562) was 36.4 µM (inactive), the GI50 (KM12) was 19.3 µM (inactive) and the GI50 (M14) was 17.7 µM (inactive). The GI50 (MCF7) was 19.5 µM (inactive), the GI50 (MDA-N) was 22.6 µM (inactive) and the GI50 (MOLT-4) was 27.2 µM (inactive). The GI50 (Malme-3M) was 23.6 µM (inactive), the GI50 (NCI-H23) was 18.1 µM (inactive) and the GI50 (NCI-H460) was 18.8 µM (inactive). For the same compound, the GI50 (NCI/ADR-RES) was 44.1 µM (inactive), the GI50 (OVCAR-4) was 17.2 µM (inactive) and the GI50 (OVCAR-5) was 20.6 µM (inactive). The GI50 (OVCAR-8) was 32.1 µM (inactive), the GI50 (PC-3) was 40.9 µM (inactive) and the GI50 (RPMI-8226) was 24.9 µM (inactive). For the same compound, the GI50 (RXF 393) was 19.1 µM (inactive), the GI50 (SF-268) was 14.5 µM (inactive) and the GI50 (SF-295) was 19.1 µM (inactive). For the same compound, the GI50 (SK-MEL-28) was 18.3 µM (inactive), the GI50 (SK-MEL-5) was 16.3 µM (inactive) and the GI50 (SK-OV-3) was 70.1 µM (inactive). For the same compound, the GI50 (SNB-19) was 37.7 µM (inactive), the GI50 (SNB-75) was 16.7 µM (inactive) and the GI50 (SR) was 26.7 µM (inactive). The GI50 (SW-620) was 23.4 µM (inactive), the GI50 (T47D) was 21.9 µM (inactive) and the GI50 (TK-10) was 20 µM (inactive). The GI50 (U-251) was 19.5 µM (inactive), the GI50 (UACC-257) was 23.2 µM (inactive) and the GI50 (UO-31) was 17.9 µM (inactive).

`Cc1c(CCCl)c(N=P(c2ccccc2)(c2ccccc2)c2ccccc2)n2c(nc3ccccc32)c1C#N` was tested, and the GI50 (786-0) was > 10 µM (inactive), the GI50 (A549) was > 10 µM (inactive) and the GI50 (CAKI-1) was > 10 µM (inactive). For the same compound, the GI50 (CCRF-CEM) was 4.67 µM (inactive), the GI50 (COLO 205) was > 10 µM (inactive) and the GI50 (DU-145) was > 10 µM (inactive). For the same compound, the GI50 (EKVX) was > 10 µM (inactive), the GI50 (HCC 2998) was > 10 µM (inactive) and the GI50 (HCT-15) was over 10 µM. For the same compound, the GI50 (HOP-62) was > 10 µM (inactive), the GI50 (HT-29) was 5.79 µM (inactive) and the GI50 (IGROV-1) was > 10 µM (inactive). The GI50 (K562) was > 10 µM (inactive), the GI50 (KM12) was > 10 µM (inactive) and the GI50 (LOX IMVI) was > 10 µM (inactive). For the same compound, the GI50 (M14) was > 10 µM (inactive), the GI50 (MCF7) was > 10 µM (inactive) and the GI50 (MDA-MB-231) was > 10 µM (inactive). The GI50 (MDA-N) was > 10 µM (inactive), the GI50 (MOLT-4) was > 10 µM (inactive) and the GI50 (Malme-3M) was > 10 µM (inactive). The GI50 (NCI-H23) was > 10 µM (inactive), the GI50 (OVCAR-8) was > 10 µM (inactive) and the GI50 (PC-3) was > 10 µM (inactive). For the same compound, the GI50 (RPMI-8226) was > 10 µM (inactive), the GI50 (RXF 393) was > 10 µM (inactive) and the GI50 (SF-268) was > 10 µM (inactive). The GI50 (SF-295) was > 10 µM (inactive), the GI50 (SK-MEL-28) was > 10 µM (inactive) and the GI50 (SK-MEL-5) was > 10 µM (inactive). For the same compound, the GI50 (SK-OV-3) was > 10 µM (inactive), the GI50 (SN12C) was > 10 µM (inactive) and the GI50 (SNB-75) was > 10 µM (inactive). The GI50 (SR) was > 10 µM (inactive), the GI50 (SW-620) was > 10 µM (inactive) and the GI50 (T47D) was > 10 µM (inactive). For the same compound, the GI50 (TK-10) was > 10 µM (inactive), the GI50 (UACC-257) was > 10 µM (inactive) and the GI50 (UACC-62) was > 10 µM (inactive).

`CC(C)[Si](OC12CCC(CC1O)CC2C(=O)O)(C(C)C)C(C)C` (configuration not stated) was tested, and the GI50 (786-0) was 11 µM (inactive), the GI50 (A498) was 15.3 µM (inactive) and the GI50 (A549) was 14.5 µM (inactive). For the same compound, the GI50 (ACHN) was 15.7 µM (inactive), the GI50 (CAKI-1) was 19.1 µM (inactive) and the GI50 (CCRF-CEM) was 13.1 µM (inactive). For the same compound, the GI50 (COLO 205) was 21.7 µM (inactive), the GI50 (DU-145) was 14.2 µM (inactive) and the GI50 (HCT-116) was 10.7 µM (inactive). The GI50 (HCT-15) was 12.4 µM, the GI50 (HL-60) was 0.459 µM (active) and the GI50 (HOP-62) was 14.4 µM (inactive). The GI50 (HOP-92) was 7.31 µM (inactive), the GI50 (HT-29) was 11.7 µM (inactive) and the GI50 (K562) was 31.6 µM (inactive). For the same compound, the GI50 (KM12) was 12.4 µM (inactive), the GI50 (M14) was 15.8 µM (inactive) and the GI50 (MCF7) was 11.3 µM (inactive). The GI50 (MDA-MB-231) was 14.7 µM (inactive), the GI50 (MDA-MB-435) was 14.5 µM (inactive) and the GI50 (MDA-N) was 17 µM (inactive). The GI50 (MOLT-4) was 13.2 µM (inactive), the GI50 (NCI-H226) was 12 µM (inactive) and the GI50 (NCI-H23) was 15.5 µM (inactive). The GI50 (NCI-H460) was 7.76 µM (inactive), the GI50 (NCI/ADR-RES) was 13.2 µM (inactive) and the GI50 (OVCAR-3) was 14.8 µM (inactive). The GI50 (OVCAR-4) was 12.6 µM (inactive), the GI50 (OVCAR-5) was 14 µM (inactive) and the GI50 (OVCAR-8) was 16.1 µM (inactive). The GI50 (PC-3) was 12.5 µM (inactive), the GI50 (RPMI-8226) was 10.1 µM (inactive) and the GI50 (SF-268) was 12.7 µM (inactive). The GI50 (SF-295) was 15.7 µM (inactive), the GI50 (SF-539) was 27.4 µM (inactive) and the GI50 (SK-MEL-28) was 11.2 µM (inactive). The GI50 (SK-MEL-2) was 14.6 µM (inactive), the GI50 (SK-MEL-5) was 18.9 µM (inactive) and the GI50 (SK-OV-3) was 13.9 µM (inactive). For the same compound, the GI50 (SN12C) was 21.7 µM (inactive), the GI50 (SNB-19) was 15.6 µM (inactive) and the GI50 (SNB-75) was 6.1 µM (inactive). For the same compound, the GI50 (SR) was 23.2 µM (inactive), the GI50 (SW-620) was 14.9 µM (inactive) and the GI50 (T47D) was 13.9 µM (inactive). The GI50 (TK-10) was 3.88 µM (inactive), the GI50 (U-251) was 14.6 µM (inactive) and the GI50 (UACC-257) was 16.7 µM (inactive). The GI50 (UACC-62) was 14 µM (inactive) and the GI50 (UO-31) was 13.2 µM (inactive).
